From ChEMBL document CHEMBL1165865, “Design, synthesis and determination of antifungal activity of 5(6)-substituted benzotriazoles” (2010)
≈ marks a conversion by molar mass, not a printed value.

What was measured:
Format in all cases: functional
[1] = test system: Pichia kudriavzevii; assay: Antifungal activity against Candida krusei ATCC 30068 after 24 hrs by macrodilution method; details: ATCC 30068, 24 h
[2] = test system: Nakaseomyces glabratus; assay: Antifungal activity against Candida glabrata ATCC 3916 after 24 hrs by macrodilution method; details: ATCC 3916, 24 h
[3] = test system: Candida parapsilosis; assay: Antifungal activity against Candida parapsilosis ATCC 22019 after 24 hrs by macrodilution method; details: Lodderomyces parapsilosis, ATCC 22019, 24 h
[4] = test system: Aspergillus niger; assay: Antifungal activity against Aspergillus niger DSMZ 737 after 24 hrs by macrodilution method; details: DSMZ 737, 24 h
[5] = test system: Saccharomyces cerevisiae; assay: Antifungal activity against Saccharomyces cerevisiae DSMZ 1333 after 24 hrs by macrodilution method; details: DSMZ 1333, 24 h
[6] = test system: Candida albicans; assay: Antifungal activity against Candida albicans ATCC 90028 after 24 hrs by macrodilution method; details: ATCC 90028, 24 h

Row | SMILES | MIC [1] [µg/mL] | MIC [2] [µg/mL] | MIC [3] [µg/mL] | MIC [4] [µg/mL] | MIC [5] [µg/mL] | MIC [6] [µg/mL]
1 | Cc1ccc2c(c1)nnn2CC(O)(Cn1cncn1)c1ccc(F)cc1F (racemic) | 25 (≈ 67.5 µM) | 25 (≈ 67.5 µM) | 12.5 (≈ 33.8 µM) | 50 (≈ 135 µM) | 6.2 (≈ 16.7 µM) | 12.5 (≈ 33.8 µM)
2 | O=[N+]([O-])c1ccc2nnn(CC(O)(Cn3cncn3)c3ccc(F)cc3F)c2c1 (racemic) | > 100 | > 100 | 100 (≈ 249 µM) | 100 (≈ 249 µM) | 100 (≈ 249 µM) | 50 (≈ 125 µM)
3 | OC(Cn1cncn1)(Cn1nnc2cccnc21)c1ccc(F)cc1F (racemic) | 100 (≈ 280 µM) | 100 (≈ 280 µM) | 25 (≈ 70 µM) | 100 (≈ 280 µM) | 50 (≈ 140 µM) | 6.2 (≈ 17.4 µM)
4 | OC(Cn1cncn1)(Cn1nnc2cc(F)ccc21)c1ccc(F)cc1F (racemic) | 50 (≈ 134 µM) | 25 (≈ 66.8 µM) | 3.1 (≈ 8.28 µM) | 100 (≈ 267 µM) | 12.5 (≈ 33.4 µM) | 25 (≈ 66.8 µM)
5 | O=[N+]([O-])c1ccc2c(c1)nnn2CC(O)(Cn1cncn1)c1ccc(F)cc1F (racemic) | 50 (≈ 125 µM) | 100 (≈ 249 µM) | 6.2 (≈ 15.4 µM) | 100 (≈ 249 µM) | 12.5 (≈ 31.1 µM) | 1.6 (≈ 3.99 µM)
6 | OC(Cn1cncn1)(Cn1nnc2ccc(F)cc21)c1ccc(F)cc1F (racemic) | > 100 | > 100 | 25 (≈ 66.8 µM) | > 100 | 6.2 (≈ 16.6 µM) | 12.5 (≈ 33.4 µM)
7 | Cc1cc2nnn(CC(O)(Cn3cncn3)c3ccc(F)cc3F)c2cc1C (racemic) | > 100 | 100 (≈ 260 µM) | 50 (≈ 130 µM) | 100 (≈ 260 µM) | 50 (≈ 130 µM) | 12.5 (≈ 32.5 µM)
8 | OC(Cn1cncn1)(Cn1nnc2cc(Cl)ccc21)c1ccc(F)cc1F (racemic) | > 100 | 50 (≈ 128 µM) | 12.5 (≈ 32 µM) | 25 (≈ 64 µM) | 6.2 (≈ 15.9 µM) | 6.2 (≈ 15.9 µM)
9 | OC(Cn1cncn1)(Cn1nnc2ccc(Cl)cc21)c1ccc(F)cc1F (racemic) | 100 (≈ 256 µM) | > 100 | 100 (≈ 256 µM) | > 100 | 100 (≈ 256 µM) | 6.2 (≈ 15.9 µM)
10 | Cc1ccc2nnn(CC(O)(Cn3cncn3)c3ccc(F)cc3F)c2c1 (racemic) | 25 (≈ 67.5 µM) | 50 (≈ 135 µM) | 6.2 (≈ 16.7 µM) | 12.5 (≈ 33.8 µM) | 6.2 (≈ 16.7 µM) | 25 (≈ 67.5 µM)
11 | COc1ccc2c(c1)nnn2CC(O)(Cn1cncn1)c1ccc(F)cc1F (racemic) | 50 (≈ 129 µM) | 50 (≈ 129 µM) | 12.5 (≈ 32.4 µM) | 100 (≈ 259 µM) | 25 (≈ 64.7 µM) | 12.5 (≈ 32.4 µM)
12 | Cc1cc2nn(CC(O)(Cn3cncn3)c3ccc(F)cc3F)nc2cc1C (racemic) | 100 (≈ 260 µM) | 25 (≈ 65 µM) | 3.1 (≈ 8.06 µM) | 25 (≈ 65 µM) | 6.2 (≈ 16.1 µM) | 1.6 (≈ 4.16 µM)
13 | OC(Cn1cncn1)(Cn1nnc2ccccc21)c1ccc(F)cc1F (racemic) | 25 (≈ 70.2 µM) | 25 (≈ 70.2 µM) | 0.8 (≈ 2.25 µM) | > 100 | 1.6 (≈ 4.49 µM) | 0.8 (≈ 2.25 µM)
14 | C[C@@H]1[C@H](O)[C@@H](C)/C=C/C=C/C=C/C=C/C=C/C=C/C=C/[C@H](O[C@@H]2O[C@H](C)[C@@H](O)[C@H](N)[C@@H]2O)C[C@@H]2O[C@](O)(C[C@@H](O)C[C@@H](O)[C@H](O)CC[C@@H](O)C[C@@H](O)CC(=O)O[C@H]1C)C[C@H](O)[C@H]2C(=O)O [AMPHOTERICIN B] | 0.4 (≈ 0.433 µM) | 0.4 (≈ 0.433 µM) | 0.4 (≈ 0.433 µM) | 0.8 (≈ 0.866 µM) | 0.4 (≈ 0.433 µM) | 0.4 (≈ 0.433 µM)
15 | OC(Cn1cncn1)(Cn1cncn1)c1ccc(F)cc1F [FLUCONAZOLE] | 50 (≈ 163 µM) | 50 (≈ 163 µM) | 0.8 (≈ 2.61 µM) | > 100 | 0.8 (≈ 2.61 µM) | 0.8 (≈ 2.61 µM)
